Measurements as given in patent EP0066456B1, “N-substituted azaheterocyclic carboxylic acids and their esters” (SMITHKLINE BECKMAN CORPORATION, priority 1981, dated 1982).

System: contralateral rotation in rats induced by unilateral injection of GABA into the pars reticulata of the substantia nigra
Test: potentiation of GABA-induced contralateral rotation in rats (unilateral GABA injection into pars reticulata of substantia nigra)
Type: in vivo
Details: systemic administration, doses from 2.5 to 40.0 mg/kg, I.P.
Description: Compounds active in the in vitro test described above are tested by systemic administration for their ability to penetrate the central nervous system and potentiate the rotation induced by GABA.

Q: Which “potentiation of contralateral rotation induced by GABA” value does the source give for `Cl.O=C(O)C1CCCN(CCC=C(c2ccccc2)c2ccccc2)C1` (stereo not shown) [1 - (4,4 - diphenyl - 3 - butenyl) - 3 - piperidinecarboxylic acid hydrochloride] here?
A: significantly active
